From US4460765A, “Enzyme inhibitor produced by cultivation of streptomyces microorganisms” (Sankyo Company Limited, priority 1979, dated 1984)
pIC50: −log10 of the molar value.

How the values were obtained:
[1] = test system: low Km cAMP PDE, rat brain; test: cAMP PDE inhibition, low Km enzyme from rat brain; type: biochemical; details: cAMP concentration 0.14 μM; for pIC50: read-out: 50% inhibitory value (I50)
Protocol: (§1) The inhibitory activity of the compounds of the invention (or of compositions, e.g. culture broths, containing them) may be assayed by the method of Pichard and Thun [Journal of Biological Chemistry, 251, 5726-5737 (1976)], using a crude enzyme solution derived from rat brains as the cAMP PDE. In this method, ^14 C-labelled cAMP is used as the substrate and is reacted at 30° C. for 20 minutes with 2-5 μl of the compound or composition under test, 20 μl of a snake venom and 40 μl of the crude enzyme solution in a 0.2M tris-HCl buffer (pH 8.0). The tris-HCl buffer is a mixture of tris(hydroxymethyl)aminomethane and hydrochloric acid. After completion of the reaction, the reaction mixture is treated with an Amberlite (Trade Mark) IRP-58 resin. From the residual radioactivity of the adenosine in the product, the inhibitory activity of the compound or composition against the cAMP PDE can be calculated as a percentage.
(§2) The inhibitory activity of griseolic acid against cAMP PDE in terms of its 50% inhibitory value (I50) are shown in Table 5 against cAMP PDE from a variety of sources having either a high or a low Michaelis constant (Km). The results are reported as μmoles (μM).

[2] = biological target: high Km cAMP PDE, rat brain; test: cAMP PDE inhibition, high Km enzyme from rat brain; type: biochemical; details: cAMP concentration 100 μM, read-out: 50% inhibitory value (I50)
Protocol: as §1, §2

[3] = biological target: low Km cAMP PDE, rat heart; test: cAMP PDE inhibition, low Km enzyme from rat heart; type: biochemical; details: cAMP concentration 0.14 μM, read-out: 50% inhibitory value (I50)
Protocol: as §1, §2

[4] = biological target: high Km cAMP PDE, rat heart; test: cAMP PDE inhibition, high Km enzyme from rat heart; type: biochemical; details: cAMP concentration 100 μM, read-out: 50% inhibitory value (I50)
Protocol: as §1, §2

[5] = test system: low Km cAMP PDE, rat aorta; test: cAMP PDE inhibition, low Km enzyme from rat aorta; type: biochemical; details: cAMP concentration 0.14 μM, read-out: 50% inhibitory value (I50)
Protocol: as §1, §2

[6] = test system: high Km cAMP PDE, rat aorta; test: cAMP PDE inhibition, high Km enzyme from rat aorta; type: biochemical; details: cAMP concentration 100 μM, read-out: 50% inhibitory value (I50)
Protocol: as §1, §2

[7] = biological target: T1, low Km cAMP PDE, rat platelets (Rattus norvegicus, UniProt Q62865); test: cAMP PDE inhibition, low Km enzyme from rat platelets; type: biochemical; details: cAMP concentration 0.14 μM, read-out: 50% inhibitory value (I50)
T1 construct: from tissue; host or cells: rat platelets
T1 sequence (Q62865 1-1141): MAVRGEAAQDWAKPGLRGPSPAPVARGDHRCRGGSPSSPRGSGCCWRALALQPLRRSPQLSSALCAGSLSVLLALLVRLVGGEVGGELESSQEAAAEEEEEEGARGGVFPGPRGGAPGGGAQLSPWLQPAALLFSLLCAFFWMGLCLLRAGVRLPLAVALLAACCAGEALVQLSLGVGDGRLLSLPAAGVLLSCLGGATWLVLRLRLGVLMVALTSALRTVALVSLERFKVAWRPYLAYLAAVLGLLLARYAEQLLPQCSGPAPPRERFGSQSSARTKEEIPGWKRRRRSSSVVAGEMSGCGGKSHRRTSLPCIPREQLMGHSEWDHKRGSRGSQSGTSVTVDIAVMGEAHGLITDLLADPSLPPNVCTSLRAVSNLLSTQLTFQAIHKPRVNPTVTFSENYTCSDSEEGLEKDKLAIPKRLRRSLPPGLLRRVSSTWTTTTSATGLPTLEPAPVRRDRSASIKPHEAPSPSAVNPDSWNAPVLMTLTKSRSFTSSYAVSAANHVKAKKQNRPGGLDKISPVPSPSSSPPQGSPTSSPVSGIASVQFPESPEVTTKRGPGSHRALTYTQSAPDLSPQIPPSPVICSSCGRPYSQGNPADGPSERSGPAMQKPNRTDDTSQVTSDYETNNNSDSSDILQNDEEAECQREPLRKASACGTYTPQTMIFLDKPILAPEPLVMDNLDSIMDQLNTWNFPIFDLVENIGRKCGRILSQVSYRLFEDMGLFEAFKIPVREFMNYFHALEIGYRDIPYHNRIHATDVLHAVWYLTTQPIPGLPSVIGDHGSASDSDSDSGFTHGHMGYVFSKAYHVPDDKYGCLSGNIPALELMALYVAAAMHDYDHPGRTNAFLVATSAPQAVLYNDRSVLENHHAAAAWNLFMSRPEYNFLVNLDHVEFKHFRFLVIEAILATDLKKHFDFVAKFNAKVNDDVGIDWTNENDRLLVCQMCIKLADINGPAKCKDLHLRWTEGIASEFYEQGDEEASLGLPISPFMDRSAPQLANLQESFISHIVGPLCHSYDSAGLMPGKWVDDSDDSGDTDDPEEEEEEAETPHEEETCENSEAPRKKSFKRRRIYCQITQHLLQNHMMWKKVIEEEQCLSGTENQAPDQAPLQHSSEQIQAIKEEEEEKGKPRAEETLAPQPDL
Protocol: as §1, §2

[8] = test system: high Km cAMP PDE, rat platelets; test: cAMP PDE inhibition, high Km enzyme from rat platelets; type: biochemical; details: cAMP concentration 100 μM, read-out: 50% inhibitory value (I50)
Protocol: as §1, §2

[9] = biological target: low Km cAMP PDE, rat kidney; test: cAMP PDE inhibition, low Km enzyme from rat kidney; type: biochemical; details: cAMP concentration 0.14 μM, read-out: 50% inhibitory value (I50)
Protocol: as §1, §2

[10] = biological target: high Km cAMP PDE, rat kidney; test: cAMP PDE inhibition, high Km enzyme from rat kidney; type: biochemical; details: cAMP concentration 100 μM, read-out: 50% inhibitory value (I50)
Protocol: as §1, §2

[11] = test system: Hela S-3 strain cells; test: basic tests on cytotoxicity; type: cell-based, mouse; details: even at concentrations of 100 μg/ml
[12] = water solubility (qualitative); type: physicochemical

inhibitory activity relative to papaverine (times stronger) [1] | pIC50 [2] | pIC50 [3] | pIC50 [4] | pIC50 [5] | pIC50 [6] | pIC50 [7] | pIC50 [8] | pIC50 [9] | pIC50 [10] | water solubility [12] | SMILES | pIC50 [1] | inhibition of cell growth [11]
about 20 times | 6.10 | 7.44 | 6.47 | 7.51 | 6.29 | 7.39 | 5.10 | 6.92 | 6.24 | water-soluble | Nc1ncnc2c1ncn2C1OC2=C(C(=O)O)C(C(O)C(=O)O)OC2C1O (centres unmarked) [griseolic acid] | 6.80 | no inhibition of cell growth
– | – | – | – | – | – | – | – | – | – | – | COc1ccc(Cc2nccc3cc(OC)c(OC)cc23)cc1OC [Papaverine, reference compound] | 5.46 | –
